Test results published in patent US20050282859A1, “Dual acting SNRI-NMDA antagonists for the treatment of genitourinary disorders” (priority 2004, published 2005).
“Also recorded” adds a separate entry of the source. Where two headings read alike, the source gives them in different places.

Experiments:
[1] = system: acetic acid-induced bladder irritation; conditions: cat, S-norfluoxetine at 3 and 10 mg/kg; cited from earlier work
[2] = system: acetic acid-induced bladder irritation; test: Acute rat dilute acetic acid model (cystometry); type: in vivo; conditions: acetic acid infusion compared to vehicle
Text: The acute models described below provide methods for evaluating active agents in the treatment of overactive bladder. Briefly, the models provide a method for reducing the bladder capacity of test animals by infusing either protamine sulfate and potassium chloride (See, Chuang, Y. C. et al., Urology 61(3): 664-670 (2003)) or dilute acetic acid (See, Thor, K. and Katofiasc., M., 1995, J. Pharmacol. Exptl. Ther., 274:1014-1024; Sasaki, K. et al, J. Urol. 168(3) 1259-1264 (2002)) into the bladder. The infusates cause irritation of the bladder and a reduction in bladder capacity by selectively activating bladder afferent fibers, such as C-fiber afferents. Following irritation of the bladder, an active agent (drug) can be administered and the ability of the active agent to reverse (partially or totally) the reduction in bladder capacity resulting from the irritation, can be determined. Substances which reverse the reduction in bladder capacity can be used in the treatment of overactive bladder. Female rats (250-275 g) were anesthetized with urethane (1.2 g/kg) and a saline-filled jugular catheter (PE-50) was inserted for intravenous drug administration and a heparinized (100 units/ml) saline-filled carotid catheter (PE-50) was inserted for blood pressure monitoring. Via a midline abdominal incision from xyphoid to navel, a PE-50 catheter was inserted into the bladder dome for bladder filling and pressure recording. The abdominal cavity was moistened with saline and closed by covering with a thin plastic sheet in order to maintain access to the bladder for filling cystometry emptying purposes. […] Data for bicifadine were analyzed by non-parametric ANOVA for repeated measures (Friedman Test) with Dunn's Multiple Comparison test for cumulative dose-response studies. […] Additionally, % voiding efficiency was calculated using the following formula: ([…]/(Single Cystometrogram Bladder Capacity))*100 for bicifadine.

[3] = system: acetic acid-induced bladder irritation; test: Acute cat dilute acetic acid model (cystometry, EUS-EMG); type: in vivo; conditions: for bladder capacity: intravenous, during acetic acid infusion
Procedure: The ability of bicifadine and milnacipran, exemplary dual acting SNRI-NMDA antagonists, to reverse the reduction in bladder capacity observed following continuous infusion of dilute acetic acid in a cat model was tested. The cat model is a commonly used model for overactive bladder (Thor and Katofiasc, 1995, J. Pharmacol. Exptl. Ther. 274: 1014-24). Female cats (2.2-3 kg B W Harlan) were anesthetized with 4% isoflurane for induction followed by intravenous administration of α-chloralose (68-75 mg/kg). An i.v. catheter was inserted in the radial vein for drug administration. A heparinized (100 units/ml) saline-filled catheter (PE-90) was inserted into the carotid artery to monitor blood pressure. A trachea tube was place to monitor respiration. Via a midline lower abdominal incision, a modified 16 gauge i.v. catheter was inserted into the bladder dome for bladder filling and pressure recording. The abdominal cavity was moistened with saline and closed by covering with a thin plastic sheet in order to maintain access to the bladder for emptying purposes. Fine silver or stainless steel wire electrodes were inserted intraurethrally into the external urethral sphincter (EUS) for electromyography (EMG). Saline was continuously infused at a rate of 0.5-1 ml(s)/min via the bladder catheter for 60 minutes to obtain baseline of lower urinary tract activity (continuous cystometry; CMG). Following the control period, a 0.5% acetic acid (AA) solution in saline was infused into the bladder at the same flow rate to induce bladder irritation. Following 30 minutes of AA infusion, in one example, 1-2 vehicle injections were made at 30 minute intervals to determine vehicle effects, if any. Subsequently, increasing doses of bicifadine (0.1, 0.3, 1, 3 and 10 mg/kg) were administered intravenously at 30-60 minute intervals in order to construct a cumulative dose-response relationship (n=6). At the end of the control saline cystometry period, the vehicle, and 15 minutes following each subsequent treatment, the infusion pump was stopped, the bladder was emptied by fluid withdrawal via the infusion catheter and a single filling cystometrogram was performed at the same flow rate in order to determine changes in bladder capacity caused by the irritation protocol and subsequent drug administration. In a second example, subsequent to AA infusion, a vehicle injection was made to ensure that there were no vehicle effects. 10 mg/kg of milnacipran was then administered intravenously. The external urethral EMG activity, bladder pressure, and volume voided was measured during saline infusion, during AA infusion, and subsequent to milnacipran administration. Data for bicifadine were analyzed by non-parametric ANOVA for repeated measures (Friedman Test) with Dunn's Multiple Comparison test for cumulative dose-response studies. All comparisons were made from the last vehicle measurement. P<0.050 was considered significant.

[4] = i.v. cumulative doses 0.1-10 mg/kg

Q: Which “bladder capacity” value [1] does the source give for NCC[C@H](Oc1ccc(C(F)(F)F)cc1)c1ccccc1 [S-norfluoxetine] here?
A: Its value is “small increases”.

Q: And the “urethral sphincter electromyographic (EMG) activity” value [1]?
A: Its value is “small increases”.

Q: Which “increase in bladder capacity” value ([2]; 1-10 mg/kg i.v. cumulative doses) does the source give for Cc1ccc(C23CNCC2C3)cc1 (stereo not drawn) [bicifadine] here?
A: Its value is ~100%.

Q: What about the “effect on bladder capacity” value ([2]; all doses (1, 3, 10 mg/kg i.v.)) of the same molecule?
A: Its value is “had an effect on the bladder capacity”.

Q: What about the “voiding efficiency” value ([2]; increasing i.v. doses) of the same molecule?
A: Its value is “not effected; also recorded: basically unaffected”.

Q: And the “increase in bladder capacity” value ([3]; 1-10 mg/kg i.v. cumulative doses, acetic acid infusion compared to vehicle)?
A: The value was 3 fold.

Q: And the “increase in voiding efficiency” value ([3]; 1-10 mg/kg i.v., acetic acid infusion compared to vehicle)?
A: Its value is ~10%.

Q: And the “increases in sphincter EMG during bladder filling” value ([3]; i.v. bicifadine, n=6 experiments)?
A: Its value is “seen in two of the six experiments”.

Q: What about the arterial pressure [3, 4] of the same molecule?
A: The arterial pressure was “No significant decrease; also recorded: No significant changes”.

Q: What about the heart rate [3, 4] of the same molecule?
A: The heart rate was “No significant changes”.

Q: What about the “contraction frequency (bladder overactivity) during continuous cystometry” value ([3]; i.v., 1-10 mg/kg, acetic acid infusion) of the same molecule?
A: The value was “reduced bladder overactivity; also recorded: dose dependent decrease from 1-10 mg/kg but this was not significant”.

Q: And the “bladder capacity” value [3]?
A: The value was “significant increase”.

Q: What about the “sphincter EMG activity during micturition contractions (bladder-sphincter synergy)” value ([3]; the two experiments with increased sphincter EMG) of the same molecule?
A: Its value is “inhibited during micturition contractions”.

Q: What does the source list for CNCC[C@H](Oc1cccc2ccccc12)c1cccs1 [duloxetine]?
A: bladder capacity [1]: markedly increases; urethral sphincter electromyographic (EMG) activity [1]: markedly increases

Q: What does the source list for CCN(CC)C(=O)C1(c2ccccc2)CC1CN (stereo not drawn) [milnacipran]?
A: sphincter EMG activity ([3]; 10 mg/kg i.v., acetic acid infusion): unexpected increase; increase in bladder capacity ([3]; 10 mg/kg i.v., acetic acid infusion compared to control): ~2 fold; increase in sphincter EMG activity, Root Mean Square ([3]; 10 mg/kg i.v., during the period following the bladder contraction): 82.5 millivolts; increase in sphincter EMG activity, Root Mean Square ([3]; 10 mg/kg i.v., during the period of bladder filling): 19.4 millivolts; bladder capacity [3]: significant increase

Q: With CNCCC(Oc1ccccc1SC)c1ccccc1 (stereo not drawn) [thionisoxetine] as the molecule, how does the “bladder capacity” value [1] read?
A: Its value is “no effects”.

Q: What about the “urethral sphincter electromyographic (EMG) activity” value [1] of the same molecule?
A: The value was “no effects”.

Q: For COc1ccc(C(CN(C)C)C2(O)CCCCC2)cc1 (stereo not drawn) [venlafaxine], which “bladder capacity” value [1] is on record?
A: Its value is “markedly increases”.

Q: What about the “urethral sphincter electromyographic (EMG) activity” value [1] of the same molecule?
A: Its value is “markedly increases”.
